Experimental data: US20200179428A1, “CYCLIC PHOSPHATE SUBSTITUTED NUCLEOSIDE DERIVATIVES AND METHODS OF USE THEREOF FOR THE TREATMENT OF VIRAL DISEASES” (priority 2016, published 2020)
Read-outs that look alike come from different tables or passages of the source.

Tests used:
Assay type in all cases: cell-based
replicon cells (1b-Con1) = assay: Replicon activity assay (replicon RNA level by real-time RT-PCR, Taqman); details: HCV replicon genotype 1b, read-out: EC50 (1b) Range
Method in brief: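 HCV 1b-Con1 replicon cells treated 3 days with 10-point twofold serial dilutions in triplicate (0.5% DMSO, 10% FBS); replicon RNA quantified by Taqman real-time RT-PCR normalised to GAPDH, EC50 derived. Cytotoxicity by MTS read-out at day 3 on identically treated cells.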

replicon cells = assay: Cytotoxicity MTS assay (CellTiter 96 Aqueous One Solution) in replicon cells; details: EDU; read-out: CC50 (EDU) Range
[1] = as above; details: HCV replicon cells (1b-Con1); EDU; read-out: CC50 (EDU) Range

| Compound | EC50 (replicon cells (1b-Con1)) | CC50 (replicon cells) | EC50 (replicon cells (1b-Con1); Hepatitis C virus) | CC50 at 3 days [1] |
| --- | --- | --- | --- | --- |
| C#C[C@@]1(O)[C@@H]2OP(=O)(OCC[C@@H](C)C(=O)OC(C)C)OC[C@H]2O[C@H]1n1ccc(=O)[nH]c1=O (single isomer, unassigned) [Compound 7B1] | 0.25 to 1 µM | > 50 µM |  |  |
| C#C[C@@]1(O)[C@@H]2OP(=O)(OCCC(C)C(=O)OC3CCCC3)OC[C@H]2O[C@H]1n1ccc(=O)[nH]c1=O (single isomer, unassigned) [Compound 8B] | ≤ 0.25 µM | > 50 µM |  |  |
| CC(C)OC(=O)C(C)CCOP1(=O)OC[C@H]2O[C@@H](n3ccc(=O)[nH]c3=O)[C@](C)(N)[C@@H]2O1 (single isomer, unassigned) [Compound 10A2] | > 10 µM | > 50 µM |  |  |
| CO[C@H](CCOP1(=O)OC[C@H]2O[C@@H](n3ccc(=O)[nH]c3=O)[C@](C)(Cl)[C@@H]2O1)C(=O)OC(C)C (stereo partly drawn) [Compound 37B] | ≤ 0.25 µM | > 50 µM |  |  |
| CC(CCOP1(=O)OC[C@H]2O[C@@H](n3ccc(=O)[nH]c3=O)[C@](C)(N)[C@@H]2O1)C(=O)OC1CCCC1 (single isomer, unassigned) [Compound 14B2] | 1 to 10 µM | > 50 µM |  |  |
| C#C[C@]1(C)[C@@H]2O[P@@](=O)(OCC(CC(=O)OC(C)C)N(C)C(=O)OC(C)(C)C)OC[C@H]2O[C@H]1n1ccc(=O)[nH]c1=O (stereo partly drawn) [Compound 74A2] | > 10 µM | > 50 µM |  |  |
| CC(C)OC(=O)[C@@H](C)CCOP1(=O)OC[C@H]2O[C@@H](n3cnc4c(N)ncnc43)[C@](C)(Cl)[C@@H]2O1 (single isomer, unassigned) [Compound 35B1] | ≤ 0.25 µM | > 50 µM |  |  |
| C#C[C@@]1(O)[C@@H]2OP(=O)(OCCC(C)C(=O)OC3CCCC3)OC[C@H]2O[C@H]1n1ccc(=O)[nH]c1=O (single isomer, unassigned) [Compound 8A2] | ≤ 0.25 µM | > 50 µM |  |  |
| CC(CCOP1(=O)OC[C@H]2O[C@@H](n3ccc(=O)[nH]c3=O)[C@](C)(N)[C@@H]2O1)C(=O)OC1CCCC1 (single isomer, unassigned) [Compound 14B1] | 1 to 10 µM | > 50 µM |  |  |
| CC(C)OC(=O)C(C)CCOP1(=O)OC[C@H]2O[C@@H](n3ccc(=O)[nH]c3=O)[C@](C)(Cl)[C@@H]2O1 (stereo partly drawn) [Compound 39B] | ≤ 0.25 µM | > 50 µM |  |  |
| CC(C)OC(=O)[C@@H](C)CCOP1(=O)OC[C@H]2O[C@@H](n3ccc(=O)[nH]c3=O)[C@](C)(Cl)[C@@H]2O1 (single isomer, unassigned) [Compound 39B2] | 0.25 to 1 µM | > 50 µM |  |  |
| C#C[C@@]1(O)[C@@H]2OP(=O)(OCCC(C)C(=O)OC3CCCC3)OC[C@H]2O[C@H]1n1ccc(=O)[nH]c1=O (single isomer, unassigned) [Compound 8B1] | ≤ 0.25 µM | > 50 µM |  |  |
| CC(CCOP1(=O)OC[C@H]2O[C@@H](n3ccc(=O)[nH]c3=O)[C@](C)(N)[C@@H]2O1)C(=O)OC1CCCC1 (single isomer, unassigned) [Compound 14A2] | > 10 µM | > 50 µM |  |  |
| C#C[C@@]1(O)[C@@H]2OP(=O)(OCC[C@H](C)C(=O)OC3CCCC3)OC[C@H]2O[C@H]1n1ccc(=O)[nH]c1=O (single isomer, unassigned) [Compound 8B2] | 0.25 to 1 µM | > 50 µM |  |  |
| CC(CCOP1(=O)OC[C@H]2O[C@@H](n3ccc(=O)[nH]c3=O)[C@](C)(N)[C@@H]2O1)C(=O)OC1CCCC1 (single isomer, unassigned) [Compound 14B] | > 10 µM | > 50 µM |  |  |
| CC(C)OC(=O)C(C)CCOP1(=O)OC[C@H]2O[C@@H](n3cnc4c(N)ncnc43)[C@](C)(Cl)[C@@H]2O1 (single isomer, unassigned) [Compound 35B] | ≤ 0.25 µM | > 50 µM |  |  |
| C#C[C@]1(C)[C@@H]2OP(=O)(OCC(C)CC(=O)OC3CCCC3)OC[C@H]2O[C@H]1n1ccc(=O)[nH]c1=O (single isomer, unassigned) [Compound 3B] | ≤ 0.25 µM | > 50 µM |  |  |
| C#C[C@@]1(O)[C@@H]2OP(=O)(OCC[C@H](C)C(=O)OC(C)C)OC[C@H]2O[C@H]1n1ccc(=O)[nH]c1=O (single isomer, unassigned) [Compound 7B2] | 1 to 10 µM | > 50 µM |  |  |
| C#C[C@]1(C)[C@@H]2OP(=O)(OCCC(C(=O)OC(C)C)C(=O)OC(C)C)OC[C@H]2O[C@H]1n1ccc(=O)[nH]c1=O (single isomer, unassigned) [Compound 36B] | 1 to 10 µM | > 50 µM |  |  |
| C#C[C@]1(C)[C@@H]2OP(=O)(OCC(C)CC(=O)OC(C)C)OC[C@H]2O[C@H]1n1ccc(=O)[nH]c1=O (single isomer, unassigned) [Compound 6A2] | > 10 µM | > 50 µM |  |  |
| C#C[C@]1(C)[C@@H]2OP(=O)(OCC(C)CC(=O)OC(C)C)OC[C@H]2O[C@H]1n1ccc(=O)[nH]c1=O (single isomer, unassigned) [Compound 6B1] | 1 to 10 µM | > 50 µM |  |  |
| C#C[C@]1(C)[C@@H]2OP(=O)(OCC(C)CC(=O)OC(C)C)OC[C@H]2O[C@H]1n1ccc(=O)[nH]c1=O (single isomer, unassigned) [Compound 6A1] | > 10 µM | > 50 µM |  |  |
| CO[C@@H](CO[P@]1(=O)OC[C@H]2O[C@@H](n3ccc(=O)[nH]c3=O)[C@](C)(N)[C@@H]2O1)CC(=O)OC(C)C [Compound 63B] |  |  | > 10 µM | > 50 µM |

| Compound | EC50 (replicon cells (1b-Con1)) | CC50 (replicon cells) | EC50 (replicon cells (1b-Con1); Hepatitis C virus) | CC50 at 3 days [1] |
| --- | --- | --- | --- | --- |
| CC(CCOP1(=O)OC[C@H]2O[C@@H](n3ccc(=O)[nH]c3=O)[C@](C)(N)[C@@H]2O1)C(=O)OC1CCCC1 (stereo partly drawn) [Compound 14A] |  |  | > 10 µM | > 50 µM |
| C#C[C@]1(C)[C@@H]2O[P@](=O)(OCC[C@H](C)C(=O)OC(C)C)OC[C@H]2O[C@H]1n1cnc2c(N)ncnc21 [Compound 72B] |  |  | 0.25 to 1 µM | > 50 µM |
| CC(C)OC(=O)C1CC1CO[P@@]1(=O)OC[C@H]2O[C@@H](n3ccc(=O)[nH]c3=O)[C@](C)(N)[C@@H]2O1 (stereo partly drawn) [Compound 47A] |  |  | > 10 µM | > 50 µM |
| CC(C)OC(=O)COCCO[P@@]1(=O)OC[C@H]2O[C@@H](n3ccc(=O)[nH]c3=O)[C@](C)(N)[C@@H]2O1 [Compound 69A] |  |  | > 10 µM | > 50 µM |
| C#C[C@]1(C)[C@@H]2O[P@](=O)(OC[C@@H](F)CC(=O)OC(C)C)OC[C@H]2O[C@H]1n1ccc(=O)[nH]c1=O [Compound 64B] |  |  | 0.25 to 1 µM | > 50 µM |
| CO[C@H](CO[P@]1(=O)OC[C@H]2O[C@@H](n3ccc(=O)[nH]c3=O)[C@](C)(N)[C@@H]2O1)[C@@H](OC)C(=O)OC(C)C [Compound 48B] |  |  | > 10 µM | > 50 µM |
| CO[C@H](CO[P@]1(=O)OC[C@H]2O[C@@H](n3ccc(=O)[nH]c3=O)[C@](C)(N)[C@@H]2O1)CC(=O)OC(C)C [Compound 61B] |  |  | > 10 µM | > 50 µM |
| COC(=O)N[C@H](CO[P@@]1(=O)OC[C@H]2O[C@@H](n3ccc(=O)[nH]c3=O)[C@](C)(C#N)[C@@H]2O1)C(=O)OC(C)C [Compound 41A] |  |  | > 10 µM | > 50 µM |
| C#C[C@]1(C)[C@@H]2O[P@](=O)(OC[C@@H](CC(=O)OC(C)C)OC)OC[C@H]2O[C@H]1n1ccc(=O)[nH]c1=O [Compound 62B] |  |  | > 10 µM | > 50 µM |
| C#C[C@]1(C)[C@@H]2O[P@@](=O)(OCCC(C)C(=O)OC3CCCCC3)OC[C@H]2O[C@H]1n1ccc(=O)[nH]c1=O (stereo partly drawn) [Compound 77A] |  |  | 1 to 10 µM | > 50 µM |
| C#C[C@]1(C)[C@@H]2O[P@@](=O)(OC[C@H](NC(=O)OC)C(=O)OC(C)C)OC[C@H]2O[C@H]1n1ccc(=O)[nH]c1=O [Compound 40A] |  |  | > 10 µM | > 50 µM |
| C#C[C@@]1(O)[C@@H]2O[P@@](=O)(OCCC(C(=O)OC(C)C)C(=O)OC(C)C)OC[C@H]2O[C@H]1n1ccc(=O)[nH]c1=O [Compound 59A] |  |  | 0.25 to 1 µM | > 50 µM |
| C#C[C@]1(C)[C@@H]2O[P@@](=O)(OCC(C)CCC(=O)OC(C)C)OC[C@H]2O[C@H]1n1ccc(=O)[nH]c1=O (stereo partly drawn) [Compound 22A] |  |  | > 10 µM | > 50 µM |
| CCOC(=O)C(C)CCOP1(=O)OC[C@H]2O[C@@H](n3ccc(=O)[nH]c3=O)[C@](C)(N)[C@@H]2O1 (single isomer, unassigned) [Compound 5A] | 1 to 10 µM |  |  | > 50 µM |
| C#C[C@]1(C)[C@@H]2O[P@@](=O)(OCC[C@@H](OC(C)=O)C(=O)OC(C)C)OC[C@H]2O[C@H]1n1ccc(=O)[nH]c1=O [Compound 50A] |  |  | > 10 µM | > 50 µM |
| C#C[C@]1(C)[C@@H]2O[P@](=O)(OC[C@H](CC(=O)OC(C)C)OC)OC[C@H]2O[C@H]1n1ccc(=O)[nH]c1=O [Compound 60B] |  |  | > 10 µM | > 50 µM |
| CO[C@H](CO[P@@]1(=O)OC[C@H]2O[C@@H](n3ccc(=O)[nH]c3=O)[C@](C)(N)[C@@H]2O1)CC(=O)OC(C)C [Compound 61A] |  |  | > 10 µM | > 50 µM |
| C[C@@]1(N)[C@@H]2O[P@@](=O)(OCCC3(C(=O)OC4CCCC4)CC3)OC[C@H]2O[C@H]1n1ccc(=O)[nH]c1=O [Compound 26A] |  |  | > 10 µM | > 50 µM |
| C[C@@]1(N)[C@@H]2O[P@](=O)(OCCC3(C(=O)OC4CCCC4)CC3)OC[C@H]2O[C@H]1n1ccc(=O)[nH]c1=O [Compound 26B] |  |  | > 10 µM | > 50 µM |
| C#C[C@]1(C)[C@@H]2O[P@@](=O)(OCC(CC(=O)OC(C)C)N(C)C(=O)OC(C)(C)C)OC[C@H]2O[C@H]1n1ccc(=O)[nH]c1=O (stereo partly drawn) [Compound 74A1] |  |  | > 10 µM | > 50 µM |
| CC(C)OC(=O)C(C)CCCO[P@@]1(=O)OC[C@H]2O[C@@H](n3ccc(=O)[nH]c3=O)[C@](C)(N)[C@@H]2O1 (stereo partly drawn) [Compound 34A] |  |  | > 10 µM | > 50 µM |
| CC(C)OC(=O)C1(CCO[P@]2(=O)OC[C@H]3O[C@@H](n4ccc(=O)[nH]c4=O)[C@](C)(N)[C@@H]3O2)CC1 [Compound 27B] |  |  | > 10 µM | > 50 µM |
